pIC50: −log10 of the molar value.
Assays:
MV4-11 = test: Antiproliferative activity against human MV4-11 cells; type: functional
[1] = Oral bioavailability in mouse; type: ADME, organism-based; conditions: in vivo
[2] = molecular target: T1, Menin/Histone-lysine N-methyltransferase MLL (Homo sapiens, UniProt O00255); test: Inhibition of human Menin to MLL protein-protein interaction; type: protein assay
MOLM-13 = test: Antiproliferative activity against human MOLM-13 cells; type: functional
[3] = molecular target: T1, Menin/Histone-lysine N-methyltransferase MLL; test: Inhibition of Menin to MLL (unknown origin) protein-protein interaction; type: protein assay

T1 sequence (O00255 whole entry): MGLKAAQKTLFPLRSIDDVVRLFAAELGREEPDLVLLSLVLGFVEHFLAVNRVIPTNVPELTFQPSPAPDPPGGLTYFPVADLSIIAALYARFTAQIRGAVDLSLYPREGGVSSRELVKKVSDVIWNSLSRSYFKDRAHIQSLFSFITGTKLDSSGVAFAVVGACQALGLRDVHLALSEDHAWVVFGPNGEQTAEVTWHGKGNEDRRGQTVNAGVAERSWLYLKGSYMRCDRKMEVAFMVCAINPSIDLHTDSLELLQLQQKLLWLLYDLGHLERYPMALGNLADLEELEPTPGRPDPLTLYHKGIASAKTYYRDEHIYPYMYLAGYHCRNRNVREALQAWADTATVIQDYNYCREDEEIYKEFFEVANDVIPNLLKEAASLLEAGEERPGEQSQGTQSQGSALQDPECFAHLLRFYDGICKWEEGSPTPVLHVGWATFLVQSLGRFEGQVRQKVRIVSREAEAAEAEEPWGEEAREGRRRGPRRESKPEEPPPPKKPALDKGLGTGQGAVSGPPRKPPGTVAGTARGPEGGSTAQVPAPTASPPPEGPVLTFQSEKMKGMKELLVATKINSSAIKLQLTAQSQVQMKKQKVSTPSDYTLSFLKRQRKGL
T1 sequence (Q03164 1-2718 partner limits assumed): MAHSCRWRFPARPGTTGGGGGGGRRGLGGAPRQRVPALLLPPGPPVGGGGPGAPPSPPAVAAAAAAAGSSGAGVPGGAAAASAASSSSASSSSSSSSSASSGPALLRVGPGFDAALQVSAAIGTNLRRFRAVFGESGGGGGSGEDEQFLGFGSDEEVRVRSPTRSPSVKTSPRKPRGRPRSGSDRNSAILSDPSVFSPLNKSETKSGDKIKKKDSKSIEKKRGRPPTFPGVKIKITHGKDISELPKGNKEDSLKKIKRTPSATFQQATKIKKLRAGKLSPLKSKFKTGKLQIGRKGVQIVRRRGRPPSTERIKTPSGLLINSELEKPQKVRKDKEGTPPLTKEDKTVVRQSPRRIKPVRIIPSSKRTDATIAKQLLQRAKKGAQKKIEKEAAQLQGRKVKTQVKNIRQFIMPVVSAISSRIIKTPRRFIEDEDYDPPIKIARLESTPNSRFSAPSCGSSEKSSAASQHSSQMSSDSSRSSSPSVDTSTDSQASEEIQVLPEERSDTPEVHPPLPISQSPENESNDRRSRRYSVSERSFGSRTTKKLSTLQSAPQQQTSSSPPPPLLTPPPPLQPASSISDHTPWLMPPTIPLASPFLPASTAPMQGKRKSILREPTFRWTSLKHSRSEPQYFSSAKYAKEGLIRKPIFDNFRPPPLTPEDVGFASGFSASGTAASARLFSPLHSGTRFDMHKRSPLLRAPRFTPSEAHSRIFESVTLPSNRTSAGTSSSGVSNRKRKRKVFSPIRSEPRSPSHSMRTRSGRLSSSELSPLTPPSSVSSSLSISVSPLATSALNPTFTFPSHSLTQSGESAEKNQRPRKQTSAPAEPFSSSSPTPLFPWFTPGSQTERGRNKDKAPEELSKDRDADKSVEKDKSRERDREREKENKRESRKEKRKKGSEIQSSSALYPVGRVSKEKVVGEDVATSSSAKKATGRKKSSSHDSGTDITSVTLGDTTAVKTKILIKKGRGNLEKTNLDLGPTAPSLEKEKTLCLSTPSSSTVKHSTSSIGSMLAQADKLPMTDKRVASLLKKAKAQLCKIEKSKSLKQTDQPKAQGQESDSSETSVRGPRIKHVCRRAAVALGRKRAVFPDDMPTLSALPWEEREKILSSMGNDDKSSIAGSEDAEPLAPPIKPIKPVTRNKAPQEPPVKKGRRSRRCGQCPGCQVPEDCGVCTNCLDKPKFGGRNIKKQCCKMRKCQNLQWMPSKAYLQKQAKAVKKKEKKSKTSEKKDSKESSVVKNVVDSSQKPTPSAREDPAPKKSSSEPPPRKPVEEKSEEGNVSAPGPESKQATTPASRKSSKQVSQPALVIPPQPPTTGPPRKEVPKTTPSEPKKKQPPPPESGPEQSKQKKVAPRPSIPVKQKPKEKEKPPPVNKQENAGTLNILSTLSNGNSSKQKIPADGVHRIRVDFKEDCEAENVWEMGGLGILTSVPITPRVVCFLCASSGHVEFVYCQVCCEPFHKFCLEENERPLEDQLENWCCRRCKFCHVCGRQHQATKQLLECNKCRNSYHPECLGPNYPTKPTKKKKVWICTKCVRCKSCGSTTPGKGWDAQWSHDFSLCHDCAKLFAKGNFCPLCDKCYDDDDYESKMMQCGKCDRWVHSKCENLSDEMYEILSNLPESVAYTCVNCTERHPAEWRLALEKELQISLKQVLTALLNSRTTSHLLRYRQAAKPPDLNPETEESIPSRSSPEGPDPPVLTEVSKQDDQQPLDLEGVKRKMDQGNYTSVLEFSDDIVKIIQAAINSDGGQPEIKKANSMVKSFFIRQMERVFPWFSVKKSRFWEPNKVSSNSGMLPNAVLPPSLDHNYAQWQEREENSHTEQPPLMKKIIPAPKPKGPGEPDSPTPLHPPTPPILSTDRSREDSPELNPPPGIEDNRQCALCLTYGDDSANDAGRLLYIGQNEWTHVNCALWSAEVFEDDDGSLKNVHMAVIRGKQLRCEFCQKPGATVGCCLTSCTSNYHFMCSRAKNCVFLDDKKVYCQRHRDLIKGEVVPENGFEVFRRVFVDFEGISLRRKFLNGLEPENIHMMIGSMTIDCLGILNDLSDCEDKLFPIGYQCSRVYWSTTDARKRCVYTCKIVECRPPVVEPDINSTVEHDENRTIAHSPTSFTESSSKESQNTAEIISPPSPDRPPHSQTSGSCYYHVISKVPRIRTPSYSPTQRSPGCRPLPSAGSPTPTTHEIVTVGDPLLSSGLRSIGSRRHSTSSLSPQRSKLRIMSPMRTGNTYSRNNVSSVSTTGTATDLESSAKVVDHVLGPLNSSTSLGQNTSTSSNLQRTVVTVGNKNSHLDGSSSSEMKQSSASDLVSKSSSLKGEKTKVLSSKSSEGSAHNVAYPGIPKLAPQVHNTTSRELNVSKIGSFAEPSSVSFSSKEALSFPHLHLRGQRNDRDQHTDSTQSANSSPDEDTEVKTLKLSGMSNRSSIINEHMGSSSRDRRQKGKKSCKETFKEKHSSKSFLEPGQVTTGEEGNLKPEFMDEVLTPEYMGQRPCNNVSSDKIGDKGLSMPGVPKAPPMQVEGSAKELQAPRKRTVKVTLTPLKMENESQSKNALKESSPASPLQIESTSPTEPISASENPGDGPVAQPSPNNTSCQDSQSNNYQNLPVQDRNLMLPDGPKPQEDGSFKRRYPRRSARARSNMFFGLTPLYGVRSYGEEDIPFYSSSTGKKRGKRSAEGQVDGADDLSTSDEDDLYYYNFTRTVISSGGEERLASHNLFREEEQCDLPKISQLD
T1 sequence (Q03164 2719-3969 partner limits assumed): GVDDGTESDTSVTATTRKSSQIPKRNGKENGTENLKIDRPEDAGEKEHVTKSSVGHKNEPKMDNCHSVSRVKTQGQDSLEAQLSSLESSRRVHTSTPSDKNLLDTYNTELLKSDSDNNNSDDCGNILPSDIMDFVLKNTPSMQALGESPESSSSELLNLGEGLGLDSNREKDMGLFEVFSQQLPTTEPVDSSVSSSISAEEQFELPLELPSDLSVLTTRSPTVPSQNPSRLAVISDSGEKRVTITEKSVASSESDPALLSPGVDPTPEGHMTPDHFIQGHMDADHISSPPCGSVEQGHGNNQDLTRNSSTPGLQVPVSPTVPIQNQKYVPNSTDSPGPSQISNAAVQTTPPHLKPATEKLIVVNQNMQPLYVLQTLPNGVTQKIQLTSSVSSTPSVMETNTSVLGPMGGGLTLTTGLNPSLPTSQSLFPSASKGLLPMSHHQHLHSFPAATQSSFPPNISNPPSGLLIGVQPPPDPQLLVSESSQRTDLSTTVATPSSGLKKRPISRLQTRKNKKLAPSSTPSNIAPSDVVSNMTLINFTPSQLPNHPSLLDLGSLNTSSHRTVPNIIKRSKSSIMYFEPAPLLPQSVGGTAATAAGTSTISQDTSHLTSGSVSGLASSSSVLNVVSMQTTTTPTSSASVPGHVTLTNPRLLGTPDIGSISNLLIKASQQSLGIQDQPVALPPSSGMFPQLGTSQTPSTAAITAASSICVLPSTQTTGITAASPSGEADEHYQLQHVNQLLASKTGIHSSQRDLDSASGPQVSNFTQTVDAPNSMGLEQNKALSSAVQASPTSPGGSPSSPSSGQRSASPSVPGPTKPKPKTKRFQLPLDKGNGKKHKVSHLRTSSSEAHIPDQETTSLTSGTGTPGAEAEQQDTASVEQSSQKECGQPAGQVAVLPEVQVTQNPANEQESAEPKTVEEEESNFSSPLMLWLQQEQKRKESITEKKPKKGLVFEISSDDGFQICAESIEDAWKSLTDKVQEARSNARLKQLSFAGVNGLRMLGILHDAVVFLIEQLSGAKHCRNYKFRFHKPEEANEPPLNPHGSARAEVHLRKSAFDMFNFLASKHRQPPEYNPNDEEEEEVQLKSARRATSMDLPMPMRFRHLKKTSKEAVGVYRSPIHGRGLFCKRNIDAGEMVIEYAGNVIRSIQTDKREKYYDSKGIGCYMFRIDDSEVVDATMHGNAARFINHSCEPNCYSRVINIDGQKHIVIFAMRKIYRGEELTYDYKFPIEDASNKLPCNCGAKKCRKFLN

| GI50 (MV4-11) | pIC50 [2] | GI50 (MOLM-13) | SMILES | pIC50 [3] | further results |
| --- | --- | --- | --- | --- | --- |
| 9500 nM | – | – | CCCc1cc2c(N3CCN(C4=NCC(C)(C)S4)CC3)ncnc2s1 | – | – |
| – | – | – | Cc1c(CN2CCC(Nc3ncnc4sc(CC(F)(F)F)cc34)CC2)ccc2c1cc(C#N)n2Cc1cn[nH]c1 | – | bioavailability [1]: 73% |
| – | – | – | Cc1c(CN2CCC(Nc3ncnc4sc(CC(F)(F)F)cc34)CC2)ccc2[nH]c(C#N)cc12 | – | bioavailability [1]: 44% |
| 2.7 nM | – | 15.4 nM | COC(=O)N[C@H]1CCC[C@@H]1[C@](C#N)(c1cccc(F)c1)C1CCN(CC2CN(c3ccc(S(=O)(=O)C4CN(C(=O)/C=C/CN(C)C)C4)cc3)C2)CC1 | – | – |
| 17 nM | – | 13 nM | CC(C)N(C(=O)c1cc(F)ccc1Oc1cncnc1N1CC2(CCN(C[C@H]3CC[C@H](NS(C)(=O)=O)CC3)CC2)C1)C(C)C | 4.40 | – |
| 7.6 nM | 9.30 | 12.5 nM | CNc1nc(NC2CCN(Cc3ccc4c(cc(C#N)n4CC45CC(NC=O)(C4)C5)c3C)CC2)c2cc(CC(F)(F)F)sc2n1 | – | – |
| – | – | – | O=c1cccc2n1C[C@@H]1C[C@H]2CN(CC(O)CSCc2ccccc2)C1 (stereo not given in full) | 7.40 | – |
| – | 8.33 | – | Clc1ccc2c(NCCN3CCN(CCCCCCCN4CCN(CCNc5ccnc6cc(Cl)ccc56)CC4)CC3)ccnc2c1 | – | – |
| – | – | – | C[C@@]12CN(CC(O)CCCc3ccccc3)C[C@@](C)(C1)c1cccc(=O)n1C2 (stereo not given in full) | 9.00 | – |

| SMILES | GI50 (MV4-11) | pIC50 [2] | GI50 (MOLM-13) | pIC50 [3] | further results |
| --- | --- | --- | --- | --- | --- |
| NCC(CCN1CC=C(c2ccc(Cl)cc2)CC1)(c1ccccc1)C1CCCC1 (stereo not given) | – | 9.08 | – | – | – |
